In data set [1] the test system is Calvarial osteoblast. Kind of data set: Stimulation of osteoblast differentiation in rat calvarial osteoblasts assessed as increase in ALP activity at 1 pM to 100 uM using p-nitrophenylphosphate substrate incubated for 48 hrs by colorimetry. In kind it is functional, cell-based.
The subject of data set [2] is Calvarial osteoblast. Kind of data set: Cytotoxicity in rat calvarial osteoblasts assessed as reduction in cell viability at 1 pM to 1 uM incubated for 48 hrs by MTT assay. In kind it is cell-based. (Formazan colour is commonly taken as a measure of viable cells.)
Data set [3] concerns Calvarial osteoblast. Kind of data set: Stimulation of mineralization in rat calvarial osteoblasts assessed as increase in calcium nodules at 1 uM by Alizarin red S staining based photography. In kind it is functional, cell-based.
In data set [4] the test system is Calvarial osteoblast. Kind of data set: Stimulation of mineralization in rat calvarial osteoblasts assessed as increase in calcium nodules at 10 nM by Alizarin red S staining based photography. In kind it is functional, cell-based.
Data set [5] deals with Calvarial osteoblast. Kind of data set: Stimulation of osteoblast differentiation in rat calvarial osteoblasts assessed as increase in ALP activity at 1 uM using p-nitrophenylphosphate substrate incubated for 48 hrs by colorimetry. Format: functional, cell-based.
The test system of data set [6] is Calvarial osteoblast. Kind of data set: Stimulation of mineralization in rat calvarial osteoblasts assessed as increase in calcium nodules at 100 pM by Alizarin red S staining based photography. Format: functional, cell-based.
Data set [7] in a line: Increase in BMP2 mRNA expression in Sprague-Dawley rat bone marrow stromal cells at 1 uM incubated for 7 days hrs by qPCR method. In kind it is functional. (Quantitative PCR measures a nucleic acid by following its amplification.)
Data set [8] can be described thus: Increase in Runx-2 mRNA expression in Sprague-Dawley rat bone marrow stromal cells at 10 nM incubated for 7 days hrs by qPCR method. In kind it is functional.
The species named for data set [9] is Rattus norvegicus. Kind of data set: Stimulation of mineralization in Sprague-Dawley rat bone marrow stromal cells assessed as increase in calcium nodules at 10 nM incubated for 18 days hrs by Alizarin red S staining based photography. Format: functional.
In data set [10] the test system is Calvarial osteoblast. Kind of data set: Increase in BMP2 mRNA expression in rat calvarial osteoblasts at 10 nM incubated for 72 hrs by qPCR method. In kind it is functional.
A short description of data set [11]: Increase in Osx mRNA expression in Sprague-Dawley rat bone marrow stromal cells at 10 nM incubated for 7 days hrs by qPCR method. Format: functional.
The species named for data set [12] is Rattus norvegicus. Kind of data set: Stimulation of mineralization in Sprague-Dawley rat bone marrow stromal cells assessed as increase in calcium nodules at 1 uM incubated for 18 days hrs by Alizarin red S staining based photography. Format: functional.
Data set [13] concerns Calvarial osteoblast. Kind of data set: Increase in COL1 mRNA expression in rat calvarial osteoblasts at 10 nM incubated for 72 hrs by qPCR method. Format: functional.
Data set [14] relates to Calvarial osteoblast. Kind of data set: Stimulation of osteoblast differentiation in rat calvarial osteoblasts assessed as increase in ALP activity at 100 nM using p-nitrophenylphosphate substrate incubated for 48 hrs by colorimetry. Format: functional, cell-based.
Data set [15] in a line: Increase in BMP2 mRNA expression in Sprague-Dawley rat bone marrow stromal cells at 10 nM incubated for 7 days hrs by qPCR method. In kind it is functional.
Data set [16] deals with Calvarial osteoblast. Kind of data set: Increase in Runx-2 mRNA expression in rat calvarial osteoblasts at 10 nM incubated for 72 hrs by qPCR method. In kind it is functional.
The test system of data set [17] is Calvarial osteoblast. Kind of data set: Stimulation of mineralization in rat calvarial osteoblasts assessed as increase in calcium nodules at 10 pM by Alizarin red S staining based photography. In kind it is functional, cell-based.

Molecules are shown by their SMILES. Active and inactive are the calls of the source. No cut-off for these calls is given here.

In the case of `Cc1ccc(C(=O)c2cc3cc(C4C(C#N)=C(N)OC5=C4C(=O)CC(C)(C)C5)cc(C(C)(C)C)c3o2)cc1` (centres undefined), the result in data set [1] and in data set [3] was Active. Further, in data set [2], the Activity result is “Non-Toxic”.

As to `Cc1ccc(C(=O)c2cc3cc(C4C(C#N)=C(N)OC5=C4C(=O)CC(C)(C)C5)cc(C)c3o2)cc1` (centres undefined), the result in data set [1] and in data set [5] was Active. In addition, in data set [2], the Activity result is listed as “Non-Toxic”. Further, in [4], the result was inactive.

On to `COc1ccc(C(=O)c2cc3cc(C4C(C#N)=C(N)OC5=C4C(=O)CC(C)(C)C5)cc(C(C)(C)C)c3o2)cc1` (centres undefined), for which the outcome in data set [6] was inactive. Also, the result in data set [1] was Active. Also, in data set [2], the Activity entry was “Non-Toxic”.

`CCc1cc(C2C(C#N)=C(N)OC3=C2C(=O)CC(C)(C)C3)cc2cc(C(=O)c3ccc(OC)cc3)oc12` (centres undefined): the outcome in data set [6] was inactive. In data set [1], the result was Active. Further, the Activity result in [2] is “Non-Toxic”.

Consider `COc1ccc(C(=O)c2cc3cc(C4C(C#N)=C(N)OC5=C4C(=O)CC(C)(C)C5)cc(C)c3o2)cc1` (centres undefined), for which the “fold change (FC)” value in data set [7] worked out at 1.8; in data set [8], 2; in [10], 2.2; in [11], 3; in data set [13] it was 1.8; in data set [15] it was 2.8. In addition, the “fold change (FC)” value in [16] turned out to be 2.4. Further, the outcome in data set [1], in data set [9], in [12], in [4] and in data set [14] was Active. Also, the Activity entry in [2] is on record as “Non-Toxic”.

Consider `CC1(C)CC(=O)C2=C(C1)OC(N)=C(C#N)C2c1cc(C(C)(C)C)c2oc(C(=O)c3ccc(Cl)cc3)cc2c1` (centres undefined), for which, in data set [17], the outcome was inactive. Further, the outcome in [1] was Active. In addition, the Activity result in data set [2] is recorded as “Non-Toxic”.
